Measured values published in US9120762B2, “Salts of bicyclo-substituted pyrazolon azo derivatives, preparation method and use thereof” (Jiangsu Hengrui Medicine Co., Ltd., priority 2009, dated 2015).
Where two headings read alike, the source gives them in different places.

Key:
[1] = Hygroscopicity assay, standing 48 hours at 25° C., humidity 79%; format: physicochemical; conditions: 48 hours, 25° C., humidity 79%
Description: The hygroscopicity test of the compounds of the present disclosure after standing for 48 hours
1. The arid glass weighing bottle with a tap (external diameter is 50 mm, the height is 15 mm) was placed at 25° C.±1° C. suitably in a thermostatic drier (saturated ammonium sulfate solution was laid in the lower part, humidity was 79%) the day before the assay, precise weight was measured as (m1);
2. The above weighing bottle was covered with the compounds of the invention (about 1 g), and the thickness of the compounds were generally 1 mm, precise weight was measured as (m2);
3. The mouth of the weighing bottle was kept open and placed with the tap in the above conditions with constant temperature and humidity for 48 hours;
4. Put the tap back on the bottle, precise weight was measured as (m3)
The degree of hygroscopicity was defined as follows: […]
Deliquesce: turning into liquid by absorbing enough moisture.
High hygroscopicity: the percentage of hygroscopicity weight gain is not less than 15%.
Hygroscopicity: the percentage of hygroscopicity weight gain is less than 15%, but not less than 2%.
Sparing hygroscopicity: the percentage of hygroscopicity weight gain is less than 2%, but not less than 0.2%.
No hygroscopicity or almost no hygroscopicity: the percentage of hygroscopicity weight gain is less than 0.2%.

human TPOR = target: T1, human TPOR (Homo sapiens, UniProt P40238); experiment: Proliferation effect on BAF3-TPOR cell (CCK-8); format: cell-based; conditions: rate relative to rhTPO positive control
T1 construct: host or cells: BaF3 (murine pro-B cells), stably transfected, G418-selected
T1 sequence (P40238 26-635): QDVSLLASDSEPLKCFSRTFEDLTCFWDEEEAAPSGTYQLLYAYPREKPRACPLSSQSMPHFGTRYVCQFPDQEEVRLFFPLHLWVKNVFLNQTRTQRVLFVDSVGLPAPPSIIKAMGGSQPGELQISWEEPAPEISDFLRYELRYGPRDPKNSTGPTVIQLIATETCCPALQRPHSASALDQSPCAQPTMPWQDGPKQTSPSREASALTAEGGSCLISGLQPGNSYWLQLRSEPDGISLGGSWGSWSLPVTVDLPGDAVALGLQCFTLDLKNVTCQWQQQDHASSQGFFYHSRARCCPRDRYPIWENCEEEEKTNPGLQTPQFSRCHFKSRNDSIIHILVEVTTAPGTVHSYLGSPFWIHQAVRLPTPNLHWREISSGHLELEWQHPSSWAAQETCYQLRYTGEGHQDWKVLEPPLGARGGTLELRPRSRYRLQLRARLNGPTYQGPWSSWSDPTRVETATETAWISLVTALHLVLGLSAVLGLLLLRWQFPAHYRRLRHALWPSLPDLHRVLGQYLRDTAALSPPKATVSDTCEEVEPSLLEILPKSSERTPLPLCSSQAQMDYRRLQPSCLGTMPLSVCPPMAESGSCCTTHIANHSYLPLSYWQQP
Description: (1) Plasmid constructs: based on the TPO receptor (TPOR) sequence information from Entrez (Gene ID: 4325, Refseq: NM_005373), dual-site mutation was performed on EX-B0010-M02 plasmid by using QuikChange® Multi Site Directed Mutagenesis Kit (Stratagene). The sequence of primers containing multi-sites mutation was designed as follows: […]
The E. coli DH5α competent cells were transformed with mutated plasmid, and positive colonies were picked up through ampicillin selection. The mutation result was confirmed by sequence analysis.
(2) BAF3-TPOR stable transfected cell line: the following method was used to construct the BaF3 cell which stably over-expressed functional human TPOR. The successfully mutated EX-B0010-M02 plasmid ([…]) which expressed human TPOR and screening gene neomycin was transfected into wild-type BaF3 cells (1×10^7) by electroporation at 250V for 18 ms using an electric pulse generator (Electro Square Porator ECM830, BTX Division of Genetronic, Inc. US). The stable transfected cells BAF3-TPOR were selected with G418 (Gibco, US), then incubated in RPMI1640 medium plus 10% FBS (Gibco, US), […] G418, 5 ng/mL, rmIL-3 (Chemicon, US).
(1) Washing cells by centrifugation: a suitable amount of cell suspension was centrifuged at 1000 rpm for 5 minutes, and the supernatant was discarded. 10 mL of cell culture media without IL-3 was added. Then the resulting cell suspension was centrifuged at 1000 rpm for 5 minutes, and the supernatant was discarded.
(2) 1 mL of cell culture media without IL-3 was added to beat upon them to equality, and the number of a suitable amount of cell suspension was counted after dilution.
(3) According to the result of the cell counting, a cell suspension in a concentration of 100,000 cell/mL was prepared.
(4) 100 μL of cell suspension was transferred to each well of 96-well culture plate, and there were 3 parallel wells, that is, there were a blank control group (B), a negative control group (N), a positive control group of TPO (P) and a test compound group (S).
(5) The test compound was dissolved in DMSO to prepare a 10 mM stock solution, and then the solution was diluted with RPMI 1640 medium into a series of test samples at different concentration: 30 μM, 10 μM, 3 μM, 1 μM, 0.3 μM, 0.1 μM, 0.03 μM, 0.01 μM, 0.003 μM, 0.001 μM.
(6) 10 μL of test compound solution was transferred to each well respectively; 1 μL of rhTPO (10 ng/mL) was added to positive control well.
(7) The plates were incubated in an incubator at 5% CO2 and 37° C. for 24 hours.
(8) After incubation, 10 μL of CCK-8 solution was added to each well and the plates were incubated in the incubator for another 24 hours.
(9) OD value was detected at 450 nm by VICTORS (Perkin Elmer 1420-120) plate reader.
(1) The proliferation rate was calculated as follows: Rate=[(S−B)/(P−B)]*100%
S: OD value of wells which contain test compound.
B: OD value of blank control wells
P: OD value of positive control wells
(2) The EC50 value was calculated by Origin 7.0 software.

[2] = Pharmacokinetics assay in rats; format: in vivo, SD rats; conditions: SD rats, intragastric, 50 mg/Kg (as free acid); 50 mg/kg
How it was run: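 SD rats, half male and half female, dosed intragastrically with compound suspended at 5 mg/mL (as free acid) in 1% sodium carboxymethyl cellulose; fed 2 h post-dose. Plasma concentrations over time were measured by HPLC-UV. Parameters came from a compartmental fit, with Cmax and tmax as observed values.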

[3] = Pharmacokinetics assay in Beagle dogs; format: in vivo; conditions: intragastric, 5 mg/kg (as free acid), 5 mg/kg
Description: The pharmacokinetic behavior of the compounds of the present disclosure was studied and evaluated in Beagle dogs.
12 Healthy adult Beagles dogs, male, were purchased from Suzhou Xishan Drug Research and Development Colo., LTD. License number: SCXK (Suzhou) 2007-0005.
The test compound was diluted with 0.5% sodium carboxymethyl cellulose to 2.5 mg/mL (calculated as the free acid form) of suspension before use.
12 Healthy adult Beagles dogs, male, were divided into 4 groups. After an overnight fast, the dogs were administered intragastrically at a dose of 5.0 mg/kg (calculated as the free acid form), at a volume of 2 mL/kg.
Blood samples (1.2 mL) were taken from vein of forelegs at pre administration and at 0.25, 0.5, 1.0, 1.5, 2.0, 3.0, 5.0, 6.0, 8.0, 12.0, 14.0, 24.0 and 48.0 hours post administration, which were stored in heparinized tubes and centrifuged for 10 minutes at 3,500 rpm. The plasma samples were stored at −20° C. until analysis. The Beagles dogs were fed 2 hours after administration.
50 μL of Beagles dog plasma, obtained at various time points after administration, 20 μL of internal standard solution and 150 μL of methanol was added to result in protein precipitation. Then the mixture was mixed for 1 minute using a vortexer and centrifuged for 5 minutes at 11,000 rpm. 50 μL of the supernatant was analyzed by HPLC-UV.
The compartmental model of pharmacokinetics was fitted for the test compounds and the major pharmacokinetic parameters were calculated in which Cmax and tmax were the actually measured values.

[4] = Solubility assay in water, 0.1% hydrochloric acid and methanol; format: physicochemical
How it was run: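 Solubility was classed by the solvent volume needed to dissolve 1 g (mL) of solute, from "very soluble" (<1 mL) to "practically insoluble" (not fully dissolved in 10000 mL).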

SMILES | Percentage of weight gain [1] | hygroscopicity [1] | EC50 (human TPOR) | Area Under Curve AUC [2] | Clearance CL/F [2] | Half-Life t½ [2] | Plasma Conc. Cmax [2] | Time to peak Tmax [2] | Area Under Curve AUC [3] | Clearance CL/F [3] | Half-Life t1/2 [3] | Plasma Conc. Cmax [3] | Time to peak Tmax [3] | solubility ([4]; 0.1% hydrochloric acid, simulated gastric fluid, 0.1% hydrochloric acid, read-out: solubility) | solubility ([4]; methanol) | solubility ([4]; water) | Mean Residence Time MRT [2]
CC1=NN(c2ccc3c(c2)CCCC3)C(=O)/C1=N\Nc1cccc(-c2ccc(C(=O)O)o2)c1O [Example 10] | 15.7% | High hygroscopicity (the percentage of hygroscopicity weight gain is not less than 15%) | 16 nM | 381000 ± 306000 ng·h/mL | 8.23 ± 12.6 mL/min/kg | 12.9 ± 6.32 h | 65600 ± 44500 ng/mL | 1.63 ± 0.75 h | 9760 ng·h/mL | 10.1 mL/min/kg | 8.07 h | 810 ng/mL | 0.7 h |  |  |  | 
CC1=NN(c2ccc3c(c2)CCC3)C(=O)/C1=N\Nc1cccc(-c2csc(C(=O)O)c2)c1O [Example 19d, (Z)-4-{2-hydroxy-3-[N′-(1-indan-5-yl-3-methyl-5-oxo-1,5-dihydro-pyrazol-4-ylidene)-hydrazino]-phenyl}-thiophene-2-carboxylic acid] |  |  | 43 nM | 36100 ± 36400 ng·h/mL | 24 ± 13.8 mL/min/kg | 1.84 ± 1.05 h | 7910 ± 6840 ng/mL | 2.50 ± 0.58 h |  |  |  |  |  | < 1 µg/mL | <1 µg/mL | <1 µg/mL | 3.01 ± 1.99 h
CC1=NN(c2ccc3c(c2)CCCC3)C(=O)/C1=N\Nc1cccc(-c2ccc(C(=O)O)o2)c1O [Example 23, (Z)-5-(2-hydroxy-3-{N′-[3-methyl-5-oxo-1-(5,6,7,8-tetrahydro-naphthalen-2-yl)-1,5-dihydro-pyrazol-4-ylidene]-hydrazino}-phenyl)-furan-2-carboxylic acid choline] | 8.48% | Hygroscopicity (the percentage of hygroscopicity weight gain is less than 15%, but not less than 2%) | 43 nM | 123000 ± 89500 ng·h/mL | 8.78 ± 4 mL/min/kg | 7.61 ± 1.34 h | 17200 ± 12300 ng/mL | 3.25 ± 3.18 h |  |  |  |  |  |  |  |  | 
